Source: the NIST ThermoML archive (doi:10.1021/je800101v)

Assay: xn = mol fraction of the nth substance listed
Conditions: Ring tensiometer

CCCCCO [pentan-1-ol] + OCCO
surface tension liquid-gas [mN/m]
Conditions	298.15 K	303.15 K	308.15 K	313.15 K	318.15 K
x1 = 0.0488	35.01	34.4	33.65	33.18	32.85
x1 = 0.0931	32.1	30.89	30.71	30.51	30.37
x1 = 0.1523	29.93	29.14	29.25	29.05	28.87
x1 = 0.2043	29.26	28.56	28.41	28.27	28.09
x1 = 0.2502	28.35	27.94	27.81	27.67	27.51
x1 = 0.2912	28.04	27.65	27.51	27.35	27.17
x1 = 0.3503	27.01	27.05	26.91	26.8	26.68
x1 = 0.4094	27.39	26.62	26.48	26.31	26.18
x1 = 0.4586	26.71	26.19	25.98	25.82	25.69
x1 = 0.5003	26.75	25.77	25.61	25.43	25.27
x1 = 0.552	26.53	25.39	25.21	25.02	24.91
x1 = 0.5982	25.71	25.15	24.98	24.81	24.68
x1 = 0.6425	26.32	24.96	24.79	24.67	24.53
x1 = 0.6979	26.21	24.75	24.57	24.41	24.25
x1 = 0.7197	26.12	24.63	24.51	24.37	24.19
x1 = 0.7739	25.98	24.35	24.18	23.98	23.82
x1 = 0.837	24.89	24.23	24.15	23.92	23.78
x1 = 0.9113	25.45	24.13	24	23.81	23.65
x1 = 0.9536	25.25	24.02	23.89	23.75	23.61
